The target of one series is Aβ40 (Homo sapiens, UniProt P05067). The experiment in a line: Inhibition of Aβ40 fibrillogenesis, thioflavin T fluorescence assay. It counts as biochemical.
The subject of the next series is COS cells. The experiment in a line: COS cell uptake of fluorescent peptides, fluorescence microscopy and HPLC reisolation. It counts as cell-based. As for the experimental part: Briefly, COS cells, were plated on coverslips, and incubated overnight in the presence of 4 μM to […] of the Anth-A16-20 peptide. The cells on coverslips were then washed extensively with PBS, fixed for one hour with a 3.7% formaldehyde solution and mounted on a slide. The cells were examined by fluorescence microscopy using a DAPI filter.
COS cells, plated on coverslips, were incubated overnight in the presence of 4 μM to 40 μM of the Anth-Aβ16-20 peptide. The cells on coverslips were then washed extensively with PBS, fixed for one hour with a 3.7% formaldehyde solution and mounted on a slide. The cells were examined by fluorescence microscopy using a DAPI filter.
In this experiment, Anth-Aβ16-20m was incubated with COS cells for eight hours. […] The cells were then lysed by the addition of Triton X-100 to 0.1% (v/v), and the lysate was analyzed by HPLC. The HPLC solvent system contained 0.1% trifluoroacetic acid in water (solvent A) and 0.1% trifluoroacetic acid in acetonitrile (solvent B). The peptide was eluted with a gradient of 0%-60% solvent B in 60 minutes. Fractions (1 ml) from the HPLC were collected and analyzed by fluorescence spectroscopy. The excitation and emission wavelengths were 346 nm and 435 nm, respectively.

Series [1] addresses T1, Aβ40 fibrils (Homo sapiens, UniProt P05067).
A short description of series [2]: Solubility in aqueous media and organic solvents.
The target in series [3] is T1, Aβ40 fibrils. The experiment in a line: Electron microscopy of Aβ40 fibril inhibition and disassembly samples. The settings on record: Aβ40 incubated with inhibitor peptide. It counts as biochemical.
Another series has as its target Aβ1-40 fibrils (Homo sapiens, UniProt P05067). The experiment in a line: Congo Red binding assay of Aβ1-40 fibril inhibition and disassembly. Format: biochemical. On the procedure:
Thioflavin T fluorescence is well known as a sensitive assay for the formation of amyloid fibrils. […] The Congo Red binding assay was performed essentially as described in other publications (Klunk 1989). An aliquot of peptide solution containing 50 μg of peptide was added to 1 ml of a […] solution of Congo Red in 100 mM phosphate buffer, pH 7.4. The solution was incubated for 15 min at room temperature and then the absorbance was measured from 400-600 nm.

Series [4] is described as follows: Fibril formation by the peptide alone (electron microscopy, Congo Red). It counts as physicochemical. As for the experimental part:
After incubation of the inhibition and disassembly samples for the appropriate period of time, an aliquot of each sample was applied to a glow-discharge, 400-mesh, carbon-coated support film and stained with 1% uranyl acetate. Micrographs were recorded using Philips EM300 at magnifications of 17,000, 45,000 and 100,000.
The Congo Red binding assay was performed essentially as described in other publications (Klunk 1989). An aliquot of peptide solution containing 50 μg of peptide was added to 1 ml of a […] solution of Congo Red in 100 mM phosphate buffer, pH 7.4. The solution was incubated for 15 min at room temperature and then the absorbance was measured from 400-600 nm.
For the electron microscopy, aliquots of the inhibition and disassembly samples were applied to a glow-discharge, 400-mesh, carbon-coated support film and stained with 1% uranyl acetate. Micrographs were recorded using a Philips EM300 at magnifications of 17,000, 45,000 and 100,000.

In a further series the target is chymotrypsin (Bos taurus, UniProt P00766). The experiment in a line: Chymotrypsin digestion (protease resistance), RP-HPLC. It counts as in vitro ADME. To be noted: 24 h at 37° C., 0.1 mg/ml chymotrypsin, pH 8.4. On the procedure:
Peptides were incubated for 24 h at 37 C with […] chymotrypsin. The percentage of undigested peptide was determined by RC-HPLC as described in the Materials and Methods. […] The arrow marks the position of the intact.
The peptides were dissolved in 0.5% ammonium bicarbonate at a concentration of 1.0 mg/ml. The pH of the solution was 8.4. Chymotrypsin (Worthington Biochemical Corporation) was added to the peptide solutions so that the final concentration was 0.1 mg/ml. Samples were incubated at 37° C. After twenty-four hrs, the samples were frozen and lyophilized. The samples were analyzed by reverse-phase HPLC using an analytical C 18 column (Rainin Microsorb) and eluted, using a 60 min gradient from 10-70% acetonitrile, containing 0.1% (v/v) TFA. The loss of intact peptide and appearance of fragments were quantitated by integration of the appropriate peaks. Results were expressed as a percent digestion of the peptides. In addition, identities of the peaks were confirmed by electrospray mass spectrometry.
The peptides were dissolved in 0.5% ammonium bicarbonate at a concentration of 1.0 mg/ml. […] After twenty-four hours, the samples were lyophilized and then analyzed by reverse-phase HPLC (Rainin-Microsorb C18 column) and a water-acetonitrile (0.1% (v/v) TFA) gradient (10-70% acetonitrile over one h).

SMILES strings stand for the structures. Converted amounts (≈) assume the structure as drawn. “Also recorded” adds a separate entry of the source. Square brackets hold non-standard residues; d marks the D form. Peptide text beside a SMILES is read from it. NMeF = CN[C@@H](Cc1ccccc1)C(=O)O; PhLac = O=C(O)[C@@H](O)Cc1ccccc1; NMeL = CN[C@@H](CC(C)C)C(=O)O; NMeV = CN[C@H](C(=O)O)C(C)C; Hiv = CC(C)[C@H](O)C(=O)O; NMeA = CN[C@@H](C)C(=O)O

Sequence of Aβ40 (P05067 672-711): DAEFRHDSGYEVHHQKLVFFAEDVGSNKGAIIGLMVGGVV
T1 sequence (P05067 672-711): as above
Sequence of Aβ1-40 fibrils (P05067 672-711): as above

As to `CNc1ccccc1C(=O)N[C@@H](CCCCN)C(=O)N(C)[C@@H](CC(C)C)C(=O)N[C@H](C(=O)N(C)[C@@H](Cc1ccccc1)C(=O)N[C@@H](Cc1ccccc1)C(N)=O)C(C)C` [Anth-Aβ16-20m, Anth-NH—K(me-L)V(me-F)F—CONH2], the “Inhibition ICmax” value on Aβ40 is recorded as 100. Besides, the “integrity of peptide internalized by COS cells and reisolated (HPLC)” value in the series with COS cells (overnight incubation) is “not modified or degraded”. Further, in the series on COS cells (peptide levels below 4 μM), the “fluorescence of COS cells” value was “Very weak fluorescence”. Also, in the series on COS cells (twelve hours incubation), the “intracellular fluorescence / permeation of COS cell membranes” value is recorded as “permeates cell membranes”.

Consider `CNc1ccccc1C(=O)N[C@@H](CCCCN)C(=O)N[C@@H](CC(C)C)C(=O)N[C@H](C(=O)N[C@@H](Cc1ccccc1)C(=O)N[C@@H](Cc1ccccc1)C(N)=O)C(C)C` [Anth-Aβ16-20], for which the “Inhibition of Fibrilogenesis ICmax” value on Aβ40 is 100%. The “Fibril Disassembly ICmax” value at Aβ40 fibrils [1] was determined as 100%. Moreover, the “fluorescence of COS cells” value is “Strong fluorescence” in the series on COS cells (peptide concentration 20 μM) and “Very weak fluorescence” with COS cells (peptide levels below 4 μM).

As to `CC(C)C[C@H](NC(=O)[C@@H](N)CCCCN)C(=O)N(C)[C@H](C(=O)N(C)[C@@H](Cc1ccccc1)C(=O)N(C)[C@@H](Cc1ccccc1)C(=O)N(C)[C@@H](C)C(=O)N[C@@H](CCC(=O)O)C(N)=O)C(C)C` [Aβ16-22m(4), NH2-KL(me-V)(me-F)(me-F)(me-A)-E-CONH2] (H-KL[NMeV][NMeF][NMeF][NMeA]E-NH2), the “solubility in aqueous media (in words)” value in series [2] is recorded as “highly soluble in water”. For the same compound, at Aβ40, the “Inhibition of Fibrillogenesis ICmax” value was found to be 100 and the “Inhibition of Fibrilogenesis ICmax” value worked out at 100%.

On to `CC(=O)N[C@@H](CCCCN)C(=O)N[C@@H](CC(C)C)C(=O)O[C@H](C(=O)N[C@@H](Cc1ccccc1)C(=O)O[C@@H](Cc1ccccc1)C(N)=O)C(C)C` [Aβ16-20e, Ac—NH—KLesterVFesterF—CONH2] (Ac-KL[Hiv]F[PhLac]-NH2), for which the “Inhibition ICmax” value at Aβ40 was 100. Also, the “Disassembly ICmax” value at Aβ40 fibrils [1] was 100. At Aβ40 fibrils [3], the “fibrillar material by electron microscopy, inhibition samples” value is “Fibrillar material was not observed”. The “Congo Red spectrum, pre-formed Aβ1-40 fibrils to which inhibitor was added” value at Aβ1-40 fibrils (disassembly) is on record as “identical to the control spectrum of Congo Red alone”. Besides, the “Congo Red spectrum, Aβ1-40 incubated with inhibitor” value at Aβ1-40 fibrils (inhibition) is on record as “identical to the control spectrum of Congo Red alone”. The “fibril formation by the peptide alone” value in series [4] was “does not cause a change in the absorbance spectrum of Congo Red”.

Usually solubility stands for the dissolved amount per volume that the medium holds. Low readings indicate little dissolved substance, high ones much dissolved substance. Regarding `CC(=O)N[C@@H](CCCCN)C(=O)N[C@@H](CC(C)C)C(=O)N[C@H](C(=O)N[C@@H](Cc1ccccc1)C(=O)N[C@@H](Cc1ccccc1)C(N)=O)C(C)C` [Aβ16-20, reference compound], the solubility in series [2] was roughly 1000 µM (≈ 694 µg/mL). In addition, on Aβ40, the “Inhibition ICmax” value was determined as 89. Besides, in series [4], the “fibril formation by the peptide alone” value is reported as “aggregates to form amyloid fibrils; also recorded: bind Congo Red”.

Consider `CC(C)C[C@@H](C(=O)N[C@H](C(=O)N(C)[C@@H](Cc1ccccc1)C(=O)N[C@@H](Cc1ccccc1)C(=O)N(C)[C@@H](C)C(=O)N[C@@H](CCCCN)C(N)=O)C(C)C)N(C)C(=O)[C@@H](N)CCC(=O)O` [Aβ16-22mR, NH2-E(me-L)V(me-F)F(me-A)-K-CONH2] (H-E[NMeL]V[NMeF]F[NMeA]K-NH2), for which the “solubility in aqueous media (in words)” value in series [2] is given as “highly soluble in aqueous solutions”. Also, on Aβ40, the “Inhibition of Fibrillogenesis ICmax” value was 100, the “Inhibition of Fibrilogenesis ICmax” value was 100% and the “effect on Aβ40 fibril formation (in words)” value (“effect” below) was “prevented fibril formation of Aβ40 in a dose dependent manner”.

For `CC(C)C[C@@H](C(=O)N[C@H](C(=O)N(C)[C@@H](Cc1ccccc1)C(=O)N[C@@H](Cc1ccccc1)C(=O)N(C)[C@@H](C)C(=O)N[C@@H](CCC(=O)O)C(N)=O)C(C)C)N(C)C(=O)[C@@H](N)CCCCN` [Aβ16-22m, NH2-K(me-L)V(me-F)F(me-A)-E-CONH2] (H-K[NMeL]V[NMeF]F[NMeA]E-NH2), the “solubility in aqueous media (in words)” value in series [2] was “highly soluble in aqueous solutions; also recorded: highly soluble in aqueous media”. In addition, in series [2] (physiological pH and ionic strength), the “solubility relative to unmethylated congener” value is on record as 20-40 times. In addition, at Aβ40, the “Inhibition of Fibrillogenesis ICmax” value came out at 100, the “Inhibition of Fibrilogenesis ICmax” value is reported as 100%, the “effect” value is given as “prevented fibril formation of Aβ40 in a dose dependent manner” and the “molar excess of inhibitor giving complete elimination of thioflavin fluorescence (complete inhibition)” value was greater than 30. The chymotrypsin digestion entry at chymotrypsin is listed as “complete resistance; also recorded: highly resistant”. On Aβ40 fibrils [3], the “fibrillar material by electron microscopy, inhibition samples” value is given as “complete lack of fibrils”. Besides, the “fibril formation by the peptide alone” value in series [4] is listed as “no fibrillar or aggregated material”.

Take `CC(=O)N[C@@H](CCCCN)C(=O)N[C@@H](CC(C)C)C(=O)N(C)[C@H](C(=O)N[C@@H](Cc1ccccc1)C(=O)N(C)[C@@H](Cc1ccccc1)C(N)=O)C(C)C` [Aβ16-20m2]: the “solubility in aqueous media (in words)” value in series [2] is given as “highly soluble in aqueous media”.

For `CC(C)C[C@H](NC(=O)[C@@H](N)CCCCN)C(=O)N[C@H](C(=O)N[C@@H](Cc1ccccc1)C(=O)N[C@@H](Cc1ccccc1)C(=O)N[C@@H](C)C(=O)N[C@@H](CCC(=O)O)C(N)=O)C(C)C` [Aβ16-22, NH2-KLVFFAE-CONH2] (H-KLVFFAE-NH2), on Aβ40, the “Inhibition of Fibrillogenesis ICmax” value turned out to be 23.0, the “Inhibition of Fibrilogenesis ICmax” value turned out to be 23.0%, the “effect” value is given as “relatively modest inhibitory effect” and the inhibition of fibrillogenesis is given as 10-20%. Besides, the chymotrypsin digestion result at chymotrypsin was “cleaved by chymotrypsin”.

As for `CC(=O)N[C@@H](CCCCN)C(=O)N[C@@H](CC(C)C)C(=O)N[C@H](C(=O)N[C@@H](Cc1ccccc1)C(=O)N[C@@H](Cc1ccccc1)C(N)=O)C(C)C` [Ac-Aβ16-20, Ac-NH-KLVFF-CONH2, reference compound], at Aβ40, the “Inhibition of Fibrillogenesis ICmax” value was determined as 100 and the “Inhibition of Fibrilogenesis ICmax” value stood at 100%. Besides, the “disassembly of pre-formed Aβ40 fibrils (in words)” value on Aβ40 fibrils [1] (thioflavin fluorescence) is listed as “disassembled pre-formed”.

For `CC(C)[C@H](NC(=O)[C@H](C(C)C)N(C)C(=O)[C@H](C)NC(=O)[C@H](C)NC(=O)[C@H](C)NC(=O)[C@H](C)N(C)C(=O)[C@H](C)NC(=O)CN)C(N)=O` [PrPm, NH2-GA(me-A)AAA(me-V)V-CONH2] (H-GA[NMeA]AAA[NMeV]V-NH2), at Aβ40, the “Inhibition of Fibrillogenesis ICmax” value was found to be 8.6, the “Inhibition of Fibrilogenesis ICmax” value was 8.6% and the “effect” value is “no effect”.

Values taken from patent US20030130484A1, “Inhibitors and disassemblers of fibrillogenesis” (priority 2001, published 2003).
